Measured values published in PubChem BioAssay (NCI).
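Exposure lasted 48 hours, with cells grown in 96-well plates and compounds tested at five concentrations. GI50: concentration for 50% inhibition of growth. TGI: total growth inhibition.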

How the values were obtained:
Experiment in all cases: growth of human tumour cells (NCI), 48 h
T-47D breast = test system: T-47D breast
MCF7 breast = test system: MCF7 breast
DU-145 prostate = test system: DU-145 prostate
MDA-N = test system: MDA-N
DLD-1 colon = test system: DLD-1 colon
DMS 273 small cell lung = test system: DMS 273 small cell lung
XF 498 CNS = test system: XF 498 CNS
SNB-78 CNS = test system: SNB-78 CNS
RXF-631 renal = test system: RXF-631 renal

## CN1c2ccccc2S(=O)(=O)n2c(COc3ccccc3)nnc21
T-47D breast
  TGI: > 100 µM
MCF7 breast
  TGI: > 100 µM
DU-145 prostate
  TGI: > 100 µM
MDA-N
  TGI: > 100 µM

## CN(CC1NCCCC1O)C12CC3CC(CC(C3)C1)C2 (configuration not stated)
DLD-1 colon
  TGI: > 100 µM
DMS 273 small cell lung
  TGI: > 100 µM
XF 498 CNS
  TGI: > 100 µM

## O=c1sc(-c2nc3ccccc3[nH]2)c(/N=C/c2ccccc2)n1-c1ccccc1
DLD-1 colon
  TGI: > 100 µM
SNB-78 CNS
  TGI: > 100 µM
DMS 273 small cell lung
  TGI: > 100 µM
XF 498 CNS
  TGI: 54.7 µM

## Cn1cc(-c2ccc3nnc(C(F)(F)c4ccc5ncccc5c4)n3n2)cn1
T-47D breast
  GI50: 40.8 µM
  TGI: > 100 µM
MCF7 breast
  GI50: 69.4 µM
  TGI: > 100 µM
DU-145 prostate
  GI50: 53.9 µM
  TGI: > 100 µM

## C=C1CCC2(C(C)=O)COC1(C)O2 (configuration not stated)
DLD-1 colon
  TGI: > 100 µM
DMS 273 small cell lung
  TGI: > 100 µM
XF 498 CNS
  TGI: > 100 µM

## CCOC(=O)CP(=S)(S)c1ccccc1 (configuration not stated)
DLD-1 colon
  TGI: > 100 µM
SNB-78 CNS
  TGI: > 100 µM
DMS 273 small cell lung
  TGI: > 100 µM
XF 498 CNS
  TGI: > 100 µM

## CC(=O)Nc1ccc(Cc2ccc3[nH]c(=O)cc(C)c3c2)cc1
T-47D breast
  TGI: > 100 µM
MCF7 breast
  TGI: > 100 µM
DU-145 prostate
  TGI: > 100 µM
MDA-N
  TGI: > 100 µM

## COc1cc2oc(-c3ccc(O)cc3)cc(=O)c2c(OC)c1O
T-47D breast
  TGI: 88.2 µM
MCF7 breast
  TGI: > 100 µM
DU-145 prostate
  TGI: > 100 µM
MDA-N
  TGI: > 100 µM

## COC(=O)[C@H](C)[C@@H]1CC[C@](C)(CCC2=C(C)CCCC2(C)C)OO1
T-47D breast
  TGI: > 25 µM
MCF7 breast
  TGI: > 25 µM
DU-145 prostate
  TGI: > 25 µM
MDA-N
  TGI: > 25 µM

## CCOC(=O)Cn1c(=O)[nH]c(=O)c2[nH]cnc21
DLD-1 colon
  TGI: > 100 µM
SNB-78 CNS
  TGI: > 100 µM
DMS 273 small cell lung
  TGI: > 100 µM
RXF-631 renal
  TGI: > 100 µM

## COC(=O)C1=Cc2cn(S(=O)(=O)c3ccc(C)cc3)c3cccc(c23)C(C=C(C)C)N1C(C)=O (configuration not stated)
DLD-1 colon
  TGI: > 100 µM
SNB-78 CNS
  TGI: > 100 µM
DMS 273 small cell lung
  TGI: > 100 µM
XF 498 CNS
  TGI: > 100 µM

## O=C(NC(Cc1ccccc1)C(=O)CCl)OCc1ccccc1 (configuration not stated)
DLD-1 colon
  TGI: 21.5 µM
SNB-78 CNS
  TGI: 50 µM
T-47D breast
  GI50: 3.37 µM
  TGI: 16.7 µM
MCF7 breast
  GI50: 2.96 µM
  TGI: 13.5 µM
DMS 273 small cell lung
  TGI: 16.4 µM
DU-145 prostate
  GI50: 10.9 µM
  TGI: 22.9 µM

## CCOC(=O)Nc1cc(-c2ccc(C)c(NS(C)(=O)=O)c2)nn2c(C)nnc12
T-47D breast
  GI50: 1.47 µM
  TGI: 17 µM
MCF7 breast
  GI50: 0.395 µM
  TGI: > 100 µM
DU-145 prostate
  GI50: 5.02 µM
  TGI: > 100 µM

## CNC(=O)c1cc(Oc2ccc3nc(NC(=O)Nc4cc(C(F)(F)F)cc(C(F)(F)F)c4)sc3c2)ccn1
T-47D breast
  GI50: 0.479 µM
  TGI: 2.3 µM
MCF7 breast
  GI50: 1.05 µM
  TGI: 2.93 µM
DU-145 prostate
  GI50: 1.25 µM
  TGI: 2.98 µM

## CSCC(COC(C)=O)(CSC)c1ccncc1
SNB-78 CNS
  TGI: > 100 µM
DMS 273 small cell lung
  TGI: > 100 µM

## [Au+].c1c[n-]cn1.c1ccc([PH+](c2ccccc2)c2ccccc2)cc1
SNB-78 CNS
  GI50: 7.57 µM
  TGI: > 45.2 µM
T-47D breast
  GI50: 2.02 µM
  TGI: 4.74 µM
DMS 273 small cell lung
  GI50: 7.87 µM
  TGI: > 44 µM
DU-145 prostate
  GI50: 17.2 µM
  TGI: 36.5 µM
MDA-N
  GI50: 3.17 µM
  TGI: 12.9 µM

## Cc1nc(-n2nc(-c3ccccc3)cc2-c2ccccc2)sc1C(/C=C/c1ccc([N+](=O)[O-])cc1)=N/NC(N)=S
DLD-1 colon
  TGI: > 100 µM
SNB-78 CNS
  TGI: 56.7 µM

## O=C(c1ccccc1)c1c2n(c3c1cc(O)c1ccccc13)CCN2
T-47D breast
  GI50: 1.77 µM
  TGI: 3.99 µM
MCF7 breast
  GI50: 1.97 µM
  TGI: 3.87 µM
DU-145 prostate
  GI50: 13.2 µM
  TGI: 27.1 µM

## O=C(CC1(O)C(=O)Nc2ccc([N+](=O)[O-])cc21)c1ccc(Br)cc1 (configuration not stated)
DLD-1 colon
  TGI: > 100 µM
SNB-78 CNS
  TGI: > 100 µM
XF 498 CNS
  TGI: > 100 µM

## N/C(=N\C(N)=N\c1nc2ccccc2s1)c1ccnc(Br)c1
T-47D breast
  GI50: 8.01 µM
  TGI: > 100 µM
MCF7 breast
  GI50: 5.49 µM
  TGI: > 100 µM
DU-145 prostate
  GI50: 15.2 µM
  TGI: > 100 µM

## Cc1cc2nc3c4cc([N+](=O)[O-])ccc4n(CCN(C)C)c3nc2cc1C
T-47D breast
  GI50: 0.549 µM
  TGI: > 42 µM
MCF7 breast
  GI50: 0.36 µM
DU-145 prostate
  GI50: 0.71 µM
  TGI: > 27.8 µM

## CCN(CC)CC(O)c1cc(-c2ccc(Cl)cc2)nc2cc(Cl)ccc12 (configuration not stated)
T-47D breast
  GI50: 2.53 µM
  TGI: 7.01 µM
MCF7 breast
  GI50: 1.5 µM
  TGI: 2.9 µM
DU-145 prostate
  GI50: 2.27 µM
  TGI: 5.04 µM

## O=C(NCCCl)NCc1ccccc1
T-47D breast
  TGI: > 100 µM
MCF7 breast
  TGI: > 100 µM
DU-145 prostate
  TGI: > 100 µM
MDA-N
  TGI: > 100 µM

## c1cnc2nc3n(c2c1)CSC3
DLD-1 colon
  TGI: > 100 µM
SNB-78 CNS
  TGI: > 100 µM
XF 498 CNS
  TGI: > 100 µM

## Cc1cc(C)c(C(=O)/C(=C/c2ccccc2)c2ccccc2)c(C)c1
DLD-1 colon
  TGI: > 100 µM
RXF-631 renal
  TGI: > 100 µM
XF 498 CNS
  TGI: > 100 µM

## CCN(CC)CCNC(=O)C(Cl)=C1C(Cl)=C(Cl)C(Cl)=C1Cl
T-47D breast
  GI50: 4.19 µM
  TGI: 45.6 µM
MCF7 breast
  GI50: 2.8 µM
  TGI: 13.5 µM
DU-145 prostate
  GI50: 2.78 µM
  TGI: 10.8 µM

## COc1ccc2c(c1)CC1N(C)CCC13CCCCC23 (configuration not stated)
T-47D breast
  TGI: > 100 µM
MCF7 breast
  TGI: > 100 µM
DU-145 prostate
  TGI: > 100 µM
MDA-N
  TGI: > 100 µM

## CC(C)OC(=O)c1cccnc1/C=N/O
DLD-1 colon
  TGI: > 100 µM
SNB-78 CNS
  TGI: > 100 µM
DMS 273 small cell lung
  TGI: > 100 µM
XF 498 CNS
  TGI: > 100 µM

## COc1ccc2c(c1)C(=O)c1c-2c(OCCN2CCCCC2)nc2ccc(OC)cc12
T-47D breast
  GI50: 3.44 µM
  TGI: 25.8 µM
MCF7 breast
  GI50: 0.275 µM
  TGI: 2.05 µM
DU-145 prostate
  GI50: 0.519 µM
  TGI: 2.19 µM

## COc1cc(OC)c(/C=C/C(=O)c2c(O)cc(OC)c(C3CCN(C)CC3)c2OC)c(OC)c1
T-47D breast
  GI50: 1.76 µM
  TGI: 3.25 µM
DU-145 prostate
  GI50: 1.75 µM
  TGI: 3.25 µM

## Nc1nc(Cl)nc2c1ncn2C1OC(CO)C(O)C1O (configuration not stated)
T-47D breast
  GI50: > 100 µM
  TGI: > 100 µM
MCF7 breast
  GI50: 1.66 µM
  TGI: > 100 µM
DU-145 prostate
  GI50: 6.76 µM
  TGI: > 100 µM

## Cc1ccnc(NC(c2ccccc2)c2ccc3cccnc3c2O)c1 (configuration not stated)
T-47D breast
  GI50: 4.22 µM
  TGI: 35.1 µM
MCF7 breast
  GI50: 5.18 µM
  TGI: 30.4 µM
DU-145 prostate
  GI50: 4.9 µM
  TGI: > 100 µM

## O=C(O)c1ccccc1C1c2ccc(Cl)cc2Oc2cc(Cl)ccc21
DLD-1 colon
  TGI: > 100 µM
DMS 273 small cell lung
  TGI: > 100 µM
RXF-631 renal
  TGI: > 100 µM

## Cn1c2c(c3ccccc31)CCN(CCCN1CCN(c3ccccc3)CC1)C2=O
DLD-1 colon
  TGI: 46.6 µM
DMS 273 small cell lung
  TGI: 52.4 µM
XF 498 CNS
  TGI: 27.8 µM
